Measurements taken from patent US20120053119A1, “THERAPEUTIC METHOD FOR INCREASING PANCREATIC BETA CELL MASS” (priority 2009, published 2012).

Tested on: MIN6 cells
Test: Thapsigargin-induced apoptosis, Western immunoblot of cleaved caspase-3 and cleaved PARP
Type: cell-based
Details: SDF-1 10 nM with thapsigargin 1 microM, 16 h
Method: FIG. 6. Inhibition of apoptosis by SDF-1 in INS-1 and MIN-6 cells is reversed by knock-down of betacatenin. A. Western blot analysis of extracts from MIN6 cells that were mock treated, thapsigargin-treated (1 μM) and/or siRNA transfected (0.25 mg/ml), by using anti-serum against cleaved caspase-3 (upper panel), anti-serum against cleaved PARP (middle panel) and actin antibody (lower panel) as a loading control. B. Caspase-3 activity (fluorescence/mg proteinx105) of INS-1 or MIN6 cells mock treated, thapsigargin-treated (1 μM) and/or siRNA transfected (0.25 mg/ml). Results are presented as mean±SD for n=3 independent experiments, All values are relative to the first (leftmost) bar. […] Quantification of apoptotic cells is expressed as percent apoptotic cells relative to the total cells counted (lower left panel). […]
Thapsigargin-induced apoptosis in INS-1 or MIN6 cells For western immuoblot assay (Cell Signaling), MIN6 cells were seeded into 6 well plates then treated with 1 microM thapsigargin or DMSO control for 16 h and apoptotic activity was measured by Western immunoblotting using antisera specific for cleaved (active) caspase-3 (Cell signaling #9661) and cleaved (active) PARP (Cell signaling #9548). For caspase-3 assay, INS-1 cells or MIN-6 cells in 24-well plates were treated with 1 microM thapsigargin or DMSO for 16 hand caspase-3 activity was determined (Molecular Probes). […]

In the case of “SDF-1: small, secreted 70 amino acid peptide chemokine, SEQ ID NO: 1, ligand of CXCR4”, the “effect on thapsigargin-increased levels of cleaved caspase-3 and PARP” value is reported as “inhibited”.
